Assay results reported in patent US8653040B2, “Compositions containing sesamin-class compound(s) and quercetin glycoside(s)” (Suntory Holdings Limited, priority 2007, dated 2014).

Experiment: Blood (plasma) concentration of sesamin and episesamin in rats after oral administration of the mixture of sesamin-class compounds alone or simultaneously with a test substance (LC-MS/MS)
Conditions: Example 3, 10 mg/kg sesamin-class compounds plus 200 μmol/kg test flavonoid glycoside in 0.5% CMC suspension
Protocol: SD (IGS) male rats (7-wk old) were purchased from CHARLES RIVER JAPAN INC. and habituated in the test environment for a week; the animals that were seen to grow normally were selected and subjected to the test. […] After adding an internal standard (UDESMIN; Funakoshi Co., Ltd.) to the samples, solid-phase extraction was performed with Oasis HLB and the resulting solution was concentrated under vacuum, suspended in methanol, passed through a filter, and subjected to LC-MS/MS for quantification of sesamin. The quantities of the sesamin-class compounds were determined from the ratio between their peak area and that of UDESMIN used as the internal standard. […]

For αG-hesperidin, the “bodily absorption amount (AUC) of the sesamin-class compounds relative to the control” value was 0.71 times.
